Experimental data from US20100239523A1 (priority 2007, published 2010).

Tests used:
human TLR4 = biological target: T1, human TLR4 (Homo sapiens, UniProt O00206); assay type: cell-based
T1 construct: host or cells: HEK 293

[1] = test system: morphine analgesia in rats; test: Potentiation of intrathecal morphine analgesia, Hargreaves test; assay type: in vivo, rat; details: about 20 μg co-administered with morphine intrathecally, FIG. 6B

T1 sequence (O00206 24-839): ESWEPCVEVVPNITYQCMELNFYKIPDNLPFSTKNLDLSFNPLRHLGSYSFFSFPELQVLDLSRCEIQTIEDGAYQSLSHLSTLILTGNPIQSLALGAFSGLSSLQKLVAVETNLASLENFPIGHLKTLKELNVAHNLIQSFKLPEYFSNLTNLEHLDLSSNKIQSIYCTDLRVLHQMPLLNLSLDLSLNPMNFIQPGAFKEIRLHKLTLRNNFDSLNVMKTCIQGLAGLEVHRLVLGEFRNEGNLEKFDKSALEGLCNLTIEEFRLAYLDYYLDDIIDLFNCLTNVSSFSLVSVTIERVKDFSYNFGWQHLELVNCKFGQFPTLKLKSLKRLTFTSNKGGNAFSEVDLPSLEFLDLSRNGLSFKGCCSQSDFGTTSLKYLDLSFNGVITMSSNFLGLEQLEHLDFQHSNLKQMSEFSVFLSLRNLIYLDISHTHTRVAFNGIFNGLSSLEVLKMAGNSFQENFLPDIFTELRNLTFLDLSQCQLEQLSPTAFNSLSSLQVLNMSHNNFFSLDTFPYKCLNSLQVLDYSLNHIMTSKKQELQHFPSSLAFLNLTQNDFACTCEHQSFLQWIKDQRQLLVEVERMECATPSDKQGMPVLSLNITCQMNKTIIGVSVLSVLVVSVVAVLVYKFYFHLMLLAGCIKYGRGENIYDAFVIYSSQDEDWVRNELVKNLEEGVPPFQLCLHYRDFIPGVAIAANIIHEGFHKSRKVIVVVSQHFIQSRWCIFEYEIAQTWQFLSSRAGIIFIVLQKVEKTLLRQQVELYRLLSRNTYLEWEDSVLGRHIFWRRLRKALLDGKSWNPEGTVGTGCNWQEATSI
T1 sequence (Q9Y6Y9 17-160 partner limits assumed): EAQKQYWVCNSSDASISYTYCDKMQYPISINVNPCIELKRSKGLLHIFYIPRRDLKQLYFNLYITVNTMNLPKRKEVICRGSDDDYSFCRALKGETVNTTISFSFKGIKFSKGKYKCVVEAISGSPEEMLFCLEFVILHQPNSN

SMILES	TLR4 agonism (human TLR4)	potentiation of morphine analgesia [1]
CN1CC[C@]23c4c5ccc(O)c4O[C@H]2[C@@H](O)C=C[C@H]3[C@H]1C5 [morphine]	TLR4 agonists	–
CCC(=O)C(CC(C)N(C)C)(c1ccccc1)c1ccccc1 (centres unmarked) [methadone]	TLR4 agonists	–
CCOC(=O)C1(c2ccccc2)CCN(C)CC1 [pethadine/meperidine]	TLR4 agonists	–
O=c1c(O)c(-c2ccc(O)c(O)c2)oc2cc(O)cc(O)c12 [quercetin]	–	significant potentiation
COc1ccc2c3c1O[C@H]1C(=O)CC[C@@]4(O)[C@@H](C2)N(C)CC[C@]314 [oxycodone]	TLR4 agonists	–
